Results reported in ChEMBL document CHEMBL1124217, “2,4-Diamino-5-benzylpyrimidines and analogues as antibacterial agents. 9. Lipophilic trimethoprim analogues as antigonococcal agents” (J Med Chem, 1988).
Values after ≈ are worked out from the molar mass of the structure shown.

Tests used:
Dihydrofolate reductase = target: T1, Dihydrofolate reductase (Rattus norvegicus, UniProt Q920D2); assay: Inhibition of Rat liver Dihydrofolate reductase(DHFR); settings: read-out: I50
T1 sequence (Q920D2 whole entry): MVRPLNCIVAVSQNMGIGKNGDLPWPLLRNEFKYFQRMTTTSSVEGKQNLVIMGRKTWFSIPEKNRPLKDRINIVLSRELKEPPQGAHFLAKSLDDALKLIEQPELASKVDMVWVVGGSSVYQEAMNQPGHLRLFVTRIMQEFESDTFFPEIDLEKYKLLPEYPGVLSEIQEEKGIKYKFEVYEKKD

Escherichia coli = assay: Inhibition of growth of Escherichia coli (CN314) measured as MIC compound/MIC Trimethoprim; assay type: functional
Klebsiella pneumoniae = assay: Inhibition of growth of Klebsiella pneumoniae (CN3632) measured as MIC compound/MIC Trimethoprim; assay type: functional
Neisseria gonorrhoeae = assay: Inhibition of growth of Neisseria gonorrhoeae; assay type: functional
Rattus norvegicus [1] = assay: Conc in serum of male rat 1.5h after administration of dose; assay type: functional, organism-based
Rattus norvegicus [2] = assay: Conc in serum of male rat 1 hr after administration of dose; assay type: functional, organism-based
Rattus norvegicus [3] = assay: Conc in serum of male rat 24 hr after administration of dose; assay type: functional, organism-based
Rattus norvegicus [4] = assay: Conc in serum of male rat 2 hr after administration of dose; assay type: functional, organism-based
Rattus norvegicus [5] = assay: Conc in serum of male rat 3h after administration of dose; assay type: functional, organism-based
Rattus norvegicus [6] = assay: Conc in serum of male rat 4 hr after administration of dose; assay type: functional, organism-based
Rattus norvegicus [7] = assay: Conc in stomach of male rat 0.50 hr after administration of dose; assay type: functional, organism-based
Rattus norvegicus [8] = assay: Conc in stomach of male rat 1.5h after administration of dose; assay type: functional, organism-based
Rattus norvegicus [9] = assay: Conc in stomach of male rat 10h after administration of dose; assay type: functional, organism-based
Rattus norvegicus [10] = assay: Conc in stomach of male rat 1 hr after administration of dose; assay type: functional, organism-based
Proteus vulgaris = assay: Inhibition of growth of Proteus vulgaris (CN329) measured as MIC compound/MIC Trimethoprim; assay type: functional
Rattus norvegicus [11] = assay: Conc in muscle of male rat 0.25 hr after administration of dose; assay type: functional, organism-based; settings: Muscle tissue
Rattus norvegicus [12] = assay: Conc in muscle of male rat 0.50 hr after administration of dose; assay type: functional, organism-based; settings: Muscle tissue
Rattus norvegicus [13] = assay: Conc in muscle of male rat 0.75h after administration of dose; assay type: functional, organism-based; settings: Muscle tissue
Rattus norvegicus [14] = assay: Conc in muscle of male rat 10h after administration of dose; assay type: functional, organism-based; settings: Muscle tissue
Rattus norvegicus [15] = assay: Conc in muscle of male rat 1 hr after administration of dose; assay type: functional, organism-based; settings: Muscle tissue
Rattus norvegicus [16] = assay: Conc in muscle of male rat 24 hr after administration of dose; assay type: functional, organism-based; settings: Muscle tissue
Rattus norvegicus [17] = assay: Conc in muscle of male rat 2 hr after administration of dose; assay type: functional, organism-based; settings: Muscle tissue
Rattus norvegicus [18] = assay: Conc in muscle of male rat 3h after administration of dose; assay type: functional, organism-based; settings: Muscle tissue
Rattus norvegicus [19] = assay: Conc in muscle of male rat 4 hr after administration of dose; assay type: functional, organism-based; settings: Muscle tissue
Rattus norvegicus [20] = assay: Conc in ovary of female rat 0.50 hr after administration of dose; assay type: functional, organism-based; settings: Female gonad
Rattus norvegicus [21] = assay: Conc in ovary of female rat 1.5h after administration of dose; assay type: functional, organism-based; settings: Female gonad
Rattus norvegicus [22] = assay: Conc in ovary of female rat 10h after administration of dose; assay type: functional, organism-based; settings: Female gonad
Rattus norvegicus [23] = assay: Conc in ovary of female rat 24 hr after administration of dose; assay type: functional, organism-based; settings: Female gonad
Rattus norvegicus [24] = assay: Conc in ovary of female rat 3h after administration of dose; assay type: functional, organism-based; settings: Female gonad
Rattus norvegicus [25] = assay: Conc in testes of male rat 0.25 hr after administration of dose; assay type: functional, organism-based; settings: Testis
Rattus norvegicus [26] = assay: Conc in testes of male rat 1.5h after administration of dose; assay type: functional, organism-based; settings: Testis
Rattus norvegicus [27] = assay: Conc in testes of male rat 10h after administration of dose; assay type: functional, organism-based; settings: Testis
Rattus norvegicus [28] = assay: Conc in testes of male rat 4 hr after administration of dose; assay type: functional, organism-based; settings: Testis
Rattus norvegicus [29] = assay: Conc in intestine of male rat 2 hr after administration of dose; assay type: functional, organism-based
Rattus norvegicus [30] = assay: Conc in intestine of male rat 1 hr after administration of dose; assay type: functional, organism-based
Rattus norvegicus [31] = assay: Conc in kidney of male rat 1.5h after administration of dose; assay type: functional, organism-based
Rattus norvegicus [32] = assay: Conc in kidney of male rat 10h after administration of dose; assay type: functional, organism-based
Rattus norvegicus [33] = assay: Conc in kidney of male rat 2 hr after administration of dose; assay type: functional, organism-based
Rattus norvegicus [34] = assay: Conc in kidney of male rat 6 hr after administration of dose; assay type: functional, organism-based
Rattus norvegicus [35] = assay: Conc in kidney of male rat after 0.75h administration of dose; assay type: functional, organism-based
Rattus norvegicus [36] = assay: Conc in liver of male rat 0.50 hr after administration of dose; assay type: functional, organism-based
Rattus norvegicus [37] = assay: Conc in liver of male rat 1.5h after administration of dose; assay type: functional, organism-based
Rattus norvegicus [38] = assay: Conc in liver of male rat 3h after administration of dose; assay type: functional, organism-based
Rattus norvegicus [39] = assay: Conc in lung of male rat 0.50 hr after administration of dose; assay type: functional, organism-based
Rattus norvegicus [40] = assay: Conc in ovary of female rat 4 hr after administration of dose; assay type: functional, organism-based; settings: Female gonad
Rattus norvegicus [41] = assay: Conc in serum of female rat 0.25 hr after administration of dose; assay type: functional, organism-based
Rattus norvegicus [42] = assay: Conc in serum of female rat 0.75h after administration of dose; assay type: functional, organism-based
Rattus norvegicus [43] = assay: Conc in serum of female rat 24 hr after administration of dose; assay type: functional, organism-based
Rattus norvegicus [44] = assay: Conc in serum of female rat 3h after administration of dose; assay type: functional, organism-based
Rattus norvegicus [45] = assay: Conc in serum of female rat 4 hr after administration of dose; assay type: functional, organism-based
Rattus norvegicus [46] = assay: Conc in serum of female rat 6 hr after administration of dose; assay type: functional, organism-based
Rattus norvegicus [47] = assay: Conc in serum of male rat 0.50 hr after administration of dose; assay type: functional, organism-based
Rattus norvegicus [48] = assay: Conc in liver of male rat after 0.75h administration of dose; assay type: functional, organism-based
Rattus norvegicus [49] = assay: Conc in serum of female rat 2 hr after administration of dose; assay type: functional, organism-based
Rattus norvegicus [50] = assay: Conc in lung of male rat 1 hr after administration of dose; assay type: functional, organism-based
Rattus norvegicus [51] = assay: Conc in lung of male rat 6 hr after administration of dose; assay type: functional, organism-based
Rattus norvegicus [52] = assay: Conc in lung of male rat after 0.25 hr administration of dose; assay type: functional, organism-based
Rattus norvegicus [53] = assay: Conc in brain of male rat 0.25 hr after administration of dose; assay type: functional, organism-based
Rattus norvegicus [54] = assay: Conc in brain of male rat 0.50 hr after administration of dose; assay type: functional, organism-based
Rattus norvegicus [55] = assay: Conc in brain of male rat 0.75h after administration of dose; assay type: functional, organism-based
Rattus norvegicus [56] = assay: Conc in brain of male rat 1.5h after administration of dose; assay type: functional, organism-based
Rattus norvegicus [57] = assay: Conc in brain of male rat 10h after administration of dose; assay type: functional, organism-based
Rattus norvegicus [58] = assay: Conc in brain of male rat 4 hr after administration of dose; assay type: functional, organism-based
Rattus norvegicus [59] = assay: Conc in brain of male rat 6 hr after administration of dose; assay type: functional, organism-based
Rattus norvegicus [60] = assay: Conc in intestine of male rat 0.50 hr after administration of dose; assay type: functional, organism-based
Rattus norvegicus [61] = assay: Conc in intestine of male rat 0.75h after administration of dose; assay type: functional, organism-based
Rattus norvegicus [62] = assay: Conc in intestine of male rat 24 hr after administration of dose; assay type: functional, organism-based
Rattus norvegicus [63] = assay: Conc in kidney of male rat 4 hr after administration of dose; assay type: functional, organism-based
Rattus norvegicus [64] = assay: Conc in liver of male rat after 0.25 hr administration of dose; assay type: functional, organism-based
Rattus norvegicus [65] = assay: Conc in serum of female rat 10h after administration of dose; assay type: functional, organism-based

CC(C)c1cc(Cc2cnc(N)nc2N)cc(C(C)C)c1O
IC50 (Dihydrofolate reductase): 7.2 µM | MIC ratio (Escherichia coli): 300 | MIC ratio (Klebsiella pneumoniae): 300 | MIC (Neisseria gonorrhoeae): 9.2 µM (≈ 2.76 µg/mL) | Concentration (Rattus norvegicus [1]): 0.8 µg/g | Concentration (Rattus norvegicus [2]): 0.92 µg/g | Concentration (Rattus norvegicus [3]): 0.08 µg/g | Concentration (Rattus norvegicus [4]): 0.49 µg/g | Concentration (Rattus norvegicus [5]): 0.47 µg/g | Concentration (Rattus norvegicus [6]): 0.42 µg/g | Concentration (Rattus norvegicus [7]): 304 µg/g | Concentration (Rattus norvegicus [8]): 97.1 µg/g | Concentration (Rattus norvegicus [9]): 2 µg/g | Concentration (Rattus norvegicus [10]): 47 µg/g | MIC ratio (Proteus vulgaris): 300 | Concentration (Rattus norvegicus [11]): 0.44 µg/g | Concentration (Rattus norvegicus [12]): 1.45 µg/g | Concentration (Rattus norvegicus [13]): 2.31 µg/g | Concentration (Rattus norvegicus [14]): 0.13 µg/g | Concentration (Rattus norvegicus [15]): 2.36 µg/g | Concentration (Rattus norvegicus [16]): 0.04 µg/g | Concentration (Rattus norvegicus [17]): 1.4 µg/g | Concentration (Rattus norvegicus [18]): 1.38 µg/g | Concentration (Rattus norvegicus [19]): 0.67 µg/g | Concentration (Rattus norvegicus [20]): 4.06 µg/g | Concentration (Rattus norvegicus [21]): 4.5 µg/g | Concentration (Rattus norvegicus [22]): 0.23 µg/g | Concentration (Rattus norvegicus [23]): 0.08 µg/g | Concentration (Rattus norvegicus [24]): 2.06 µg/g | Concentration (Rattus norvegicus [25]): 1.34 µg/g | Concentration (Rattus norvegicus [26]): 1.52 µg/g | Concentration (Rattus norvegicus [27]): 0.66 µg/g | Concentration (Rattus norvegicus [28]): 1.01 µg/g | Concentration (Rattus norvegicus [29]): 11.6 µg/g | Concentration (Rattus norvegicus [30]): 26 µg/g | Concentration (Rattus norvegicus [31]): 6.74 µg/g | Concentration (Rattus norvegicus [32]): 1.13 µg/g | Concentration (Rattus norvegicus [33]): 4.08 µg/g | Concentration (Rattus norvegicus [34]): 1.55 µg/g | Concentration (Rattus norvegicus [35]): 10.3 µg/g | Concentration (Rattus norvegicus [36]): 29.9 µg/g | Concentration (Rattus norvegicus [37]): 13.5 µg/g | Concentration (Rattus norvegicus [38]): 9.56 µg/g | Concentration (Rattus norvegicus [39]): 8.31 µg/g | Concentration (Rattus norvegicus [40]): 1.55 µg/g | Concentration (Rattus norvegicus [41]): 0.49 µg/g | Concentration (Rattus norvegicus [42]): 1.44 µg/g | Concentration (Rattus norvegicus [43]): 0.14 µg/g | Concentration (Rattus norvegicus [44]): 0.61 µg/g | Concentration (Rattus norvegicus [45]): 0.53 µg/g | Concentration (Rattus norvegicus [46]): 0.34 µg/g | Concentration (Rattus norvegicus [47]): 1.12 µg/g | Concentration (Rattus norvegicus [48]): 23.1 µg/g | Concentration (Rattus norvegicus [49]): 0.68 µg/g | Concentration (Rattus norvegicus [50]): 11.9 µg/g | Concentration (Rattus norvegicus [51]): 0.52 µg/g | Concentration (Rattus norvegicus [52]): 2.52 µg/g | Concentration (Rattus norvegicus [53]): 0.13 µg/g | Concentration (Rattus norvegicus [54]): 0.58 µg/g | Concentration (Rattus norvegicus [55]): 1.01 µg/g | Concentration (Rattus norvegicus [56]): 0.65 µg/g | Concentration (Rattus norvegicus [57]): 0.04 µg/g | Concentration (Rattus norvegicus [58]): 0.19 µg/g | Concentration (Rattus norvegicus [59]): 0.05 µg/g | Concentration (Rattus norvegicus [60]): 114 µg/g | Concentration (Rattus norvegicus [61]): 112 µg/g | Concentration (Rattus norvegicus [62]): 0.85 µg/g | Concentration (Rattus norvegicus [63]): 2.07 µg/g | Concentration (Rattus norvegicus [64]): 17.4 µg/g | Concentration (Rattus norvegicus [65]): 0.16 µg/g
